Like-named read-outs stand apart in the source and are kept apart here.
Experiments:
in vitro [1] = details: human
[2] = system: primary human immune cells (monocytes, M1 macrophages, M2 macrophages, MdDCs and T cells); test: Orangu cell viability assay, primary human immune cells overall; details: all tested immune cell types, 0.5–100 nM
in vitro [3] = details: human; remark: listed apart in the source
in vitro [4] = details: human; remark: listed apart in the source
in vitro [5] = details: human; remark: listed apart in the source
in vitro [6] = details: human; remark: listed apart in the source
5′-UTR of HEV (HEVgt3c) = assay type: cell-based, human
HCoV-229E [7] = details: cited from earlier work
[8] = system: monocyte-derived dendritic cells (MdDCs); details: human
[9] = system: 5′-UTRs of HCoV-229E, MERS-CoV and SARS-CoV-2; assay type: cell-based, human
M2 macrophages = details: human
MERS-CoV [10] = details: cited from earlier work
MERS-CoV [11] = assay type: cell-based, Middle East respiratory syndrome coronavirus
SARS-CoV-2 [12] = details: cited from earlier work
HCoV-229E [13] = test: microbe, parasite or virus in culture; assay type: cell-based, human coronavirus 229E
MERS-CoV [14] = test: microbe, parasite or virus in culture; assay type: cell-based, Middle East respiratory syndrome coronavirus
SARS-CoV-2 [15] = test: microbe, parasite or virus in culture; assay type: cell-based
SARS-CoV-2 [16] = details: cited from earlier work; remark: listed apart in the source

SMILES	translation inhibition of HEVgt3c 5′-UTR reporter (5′-UTR of HEV (HEVgt3c))	translation inhibition of HEVgt3c-Purine (5′-UTR of HEV (HEVgt3c))	EC50 (HCoV-229E [7]) [nM]	reduction of viability [8]	translation efficiency (reporter gene expression) with coronavirus 5′-UTRs [9]	reduction of viability (M2 macrophages)	effect on viability (T cells)	EC50 (MERS-CoV [10]) [nM]	effect on the replication of MERS-CoV (MERS-CoV [11])	reduction of viral replication (MERS-CoV [11])	translation inhibition of destabilized variants (5′-UTR of HEV (HEVgt3c))	other results
CONC(=O)[C@@H]1[C@H](O)[C@]2(O)c3c(OC)cc(OC)cc3O[C@]2(c2ccc(OC)cc2)[C@H]1c1ccccc1 [CR-1-30-B]												CC50 (in vitro [1]): > 100 nM; impact on cell viability [2]: essentially no impact on cell viability at all; CC50 (in vitro [3]): > 100 nM; CC50 (in vitro [4]): > 100 nM; CC50 (in vitro [5]): > 100 nM; CC50 (in vitro [6]): > 100 nM
CONC(=O)[C@H]1[C@@H](O)[C@@]2(O)c3c(OC)cc(OC)cc3O[C@@]2(c2ccc(OC)cc2)[C@@H]1c1ccccc1 [CR-1-31-B]	translation inhibition only in the presence of a polypurine stretch	regain translation inhibition	2.9	approximately 50%	sensitive	approximately 50%	not affected	1.9	no significant effect	nearly undetectable levels		EC50 (SARS-CoV-2 [12]): 1.8 nM; TEER signal reduction (NHBE cells; human): ~ 25%
COC(=O)[C@H]1[C@@H](O)[C@@]2(O)c3c(OC)cc(O[C@@H]4O[C@@H]([C@H](O)CO)CO[C@H]4OC)cc3O[C@@]2(c2ccc(OC)cc2)[C@@H]1c1ccccc1 [Silvestrol]	either a stable hairpin substrate or a polypurine stretch is sufficient	regain translation inhibition	3	approximately 50%	sensitive	approximately 50%	not affected	1.3			loss of the inhibitory effects	
COc1cc2c(c(OC)n1)[C@]1(O)[C@H](O)[C@H](CN(C)C)[C@@H](c3ccccc3)[C@]1(c1ccc(C#N)cc1)O2 [Zotatifin]	translation inhibition	regain translation inhibition			sensitive				no significant effect	about two orders of magnitude	loss of the inhibitory effects	EC50 (HCoV-229E [13]): 3.86 nM; EC50 (HCoV-229E [13]; Human coronavirus 229E, MRC5): 3.9 nM; viability reduced to (human monocytes): approximately 75%; translation inhibition compared with 10 nM of silvestrol or CR-1-31-B [9]: slightly weaker; EC50 (MERS-CoV [14]): 4.31 nM; EC50 (MERS-CoV [14]; Middle East respiratory syndrome-related coronavirus, MRC5): 4.3 nM; EC50 (SARS-CoV-2 [15]): 41.6 nM; fold less efficient (higher EC50) than CR-1-31-B against SARS-CoV-2 (SARS-CoV-2 [15]): around 20 fold; EC50 (SARS-CoV-2 [15]; Severe acute respiratory syndrome coronavirus 2, Vero C1008): 41.6 nM; cytotoxicity (MRC-5 cells): no significant cytotoxicity; cytotoxicity by TEER (NHBE cells): no significant cytotoxicity; EC90 (SARS-CoV-2 [16]): 37 nM
